# How the values were obtained:
# Keap1 Kelch domain = Keap1 Kelch domain (Homo sapiens, UniProt Q14145); assay: SPR solution competition assay; assay type: binding
# Stability over 24 h = details: over a period of 24 h
# Glutathione reactivity = details: 50 μM glutathione, over 48 h
# Keap1 Kelch domain, sequence (Q14145 321-609 limits assumed): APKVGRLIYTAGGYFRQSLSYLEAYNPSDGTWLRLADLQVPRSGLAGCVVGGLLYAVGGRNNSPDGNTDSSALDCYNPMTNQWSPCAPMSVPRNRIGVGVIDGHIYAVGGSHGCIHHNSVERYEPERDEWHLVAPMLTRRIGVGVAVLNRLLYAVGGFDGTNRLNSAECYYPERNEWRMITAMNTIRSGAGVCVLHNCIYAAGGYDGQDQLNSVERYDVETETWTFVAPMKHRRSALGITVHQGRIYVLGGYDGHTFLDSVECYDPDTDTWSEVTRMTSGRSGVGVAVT
smiles,measurement,setting,value
NC(=O)C1CCCCC1C(=O)N1CCc2ccccc2C1CN1C(=O)c2ccccc2C1=O (centres unmarked) [corresponding amide],fold less active than (SRS)-5,Keap1 Kelch domain; relative to (SRS)-5,about 20 fold
O=C(O)C1CCCCC1C(=O)N1CCc2ccccc2C1CN1Cc2ccccc2C1=O (centres unmarked) [lactam],Keap1 binding activity (in words),Keap1 Kelch domain,only slight decrease in Keap1 binding
COC(=O)C1CCCCC1C(=O)N1CCc2ccccc2C1CN1C(=O)c2ccccc2C1=O (centres unmarked) [corresponding methyl ester],Keap1 binding activity (in words),Keap1 Kelch domain,completely inactive
O=C(O)[C@H]1CCCC[C@H]1C(=O)N1CCc2ccccc2[C@H]1CN1C(=O)c2ccccc2C1=O [(SRS)-5],stability,Stability over 24 h,highly stable
same,thiol addition or decomposition,Glutathione reactivity,No thiol addition or decomposition could be detected
